# Experimental data: patent publication US5011850A, “Substituted diazolylalkyl-carbinols, a process for their preparation and their use as antimycotic agents” (Bayer Aktiengesellschaft, priority 1983, dated 1991)
# Legend:
# Trichophyton mentagr. = assay: Antimycotic in vitro activity, series dilution test; type: cell-based, Trichophyton mentagrophytes; conditions: Sabourand's milieu d'epreuve, 5×10^4 germs/ml, 20° C., 96 hours
# Method: (§1) The in vitro tests were carried out in a series dilution test with germ inocula of on average 5×10^4 germs/ml of substrate. The nutrient medium used was (a) for dermatophytes and moulds: Sabourand's milieu d'epreuve, and The incubation temperature was 20° C. and the duration of incubation was 24 to 96 hours in the case of yeasts and 96 hours in the case of dermatophytes and moulds.
# Candida albicans = assay: as above; type: cell-based; conditions: meat extract/glucose broth, 5×10^4 germs/ml, 20° C., 24 to 96 hours
# Method: as §1, with “(b)” for “(a)”, “yeasts: meat extract/glucose broth.” for “dermatophytes and moulds: Sabourand's milieu d'epreuve, and”
# Torulopsis glabrata = assay: as above; type: cell-based; conditions: Nakaseomyces glabratus; meat extract/glucose broth; 5×10^4 germs/ml; 20° C.; 24 to 96 hours
# Method: as §1, with “(b)” for “(a)”, “yeasts: meat extract/glucose broth.” for “dermatophytes and moulds: Sabourand's milieu d'epreuve, and”
# Aspergillus fumigatus = assay: as above; type: cell-based; conditions: Sabourand's milieu d'epreuve, 5×10^4 germs/ml, 20° C., 96 hours
# Method: as §1
# [1] = test system: dermatophytes, moulds and yeasts; assay: Antimycotic in vitro activity, series dilution test (overall action spectrum); type: cell-based; conditions: result in words
# Method: as §1, with “d'epreuve, and (b) for yeasts: meat extract/glucose broth. The incubation” for “d'epreuve, and The incubation”
# Candida = assay: Antimycotic in vivo activity (oral) in candidosis of mice; set-up: species or system mice (SPF-CF1); conditions: 10-50 mg/kg one hour before and seven hours after infection, result in words
# Method: Mice of the SPF-CF1 type were infested intravenously with 1-2×10^6 logarthmically growing Candida cells, which were suspended in physiological saline solution. The animals were treated with, in each case, 10-50 mg/kg of body weight of the products one hour before and seven hours after the infection.
SMILES,MIC (Trichophyton mentagr.),MIC (Candida albicans),MIC (Torulopsis glabrata),MIC (Aspergillus fumigatus),antimycotic action spectrum in vitro [1],antimycotic action in candidosis of mice (in words) (Candida)
CC(C)(n1cncn1)C(O)(Cn1ccnc1)c1ccc(-c2ccc(Cl)cc2)cc1 (stereo not drawn) [Example 9],4 µg/mL,8 µg/mL,8 µg/mL,32 µg/mL,good antimycotic action spectrum,–
CC(C)(n1cncn1)C(O)(Cn1cncn1)c1ccc(-c2ccc(Cl)cc2)cc1 (stereo not drawn) [Example 6],≤ 1 µg/mL,64 µg/mL,–,16 µg/mL,good antimycotic action spectrum,–
CC(C)(n1cncn1)C(O)(Cn1ccnc1)c1ccc(Oc2ccc(Cl)cc2)cc1 (stereo not drawn) [Example 8],8 µg/mL,4 µg/mL,32 µg/mL,64 µg/mL,good antimycotic action spectrum,–
CC(C)(n1cncn1)C(O)(Cn1cncn1)c1ccc(Oc2ccc(Cl)cc2)cc1 (stereo not drawn) [Example 5],≤ 1 µg/mL,2 µg/mL,32 µg/mL,> 64 µg/mL,good antimycotic action spectrum,good antimycotic action
CC(C)(n1cncn1)C(O)(Cn1cncn1)c1ccc(F)cc1 (stereo not drawn) [Example 3],16 µg/mL,16 µg/mL,64 µg/mL,> 64 µg/mL,good antimycotic action spectrum,good antimycotic action
CC(n1cncn1)C(O)(Cn1cncn1)c1ccc(-c2ccccc2)cc1 (stereo not drawn) [Example 10],2 µg/mL,2 µg/mL,64 µg/mL,64 µg/mL,good antimycotic action spectrum,–
"CC(C)(n1cncn1)C(O)(Cn1cncn1)c1ccc(Cl)cc1 (stereo not drawn) [Example 1, 2-(4-chlorophenyl)-1,3-di-(1,2,4-triazol-1-yl)-3-methyl-2-butanol]",–,–,–,–,–,good antimycotic action
CC(C)(n1cncn1)C(O)(Cn1cncn1)c1ccccc1 (stereo not drawn) [Example 4],–,–,–,–,–,good antimycotic action
